These results are taken from patent US6191124A, “Methanol derivatives for treatment of retroviral infections especially HIV infections” (priority 1997, dated 2001).

Like-named read-outs stand apart in the source and are kept apart here. Where only a bound is given, the exact number is not on record here.

In the experiment the target is HIV-1 protease (Human immunodeficiency virus type 1 group M subtype B, UniProt P04585). In words: HIV protease screening assay (fluorescently labeled biotinylated substrate, streptavidin beads), percent inhibition. The experiment is classed as biochemical. How it is done: The HIV protease screening assay is based on fluorescently labeled substrate which can be resolved from nonlabeled cleavage product using special beads coated with streptavidin. The substrate is biotinylated at the amino terminal arginine and fluorescently labeled with fluorescein isothiocynate (FITC) at the carboxyl terminal lysine. This assay has been employed to detect novel, nonpeptidic inhibitors of HIV-1 protease. Substrate (20 μl of 0.2 μM), sample (10 μl of desired concentration), and enzyme (10 μl of 0.1 μM) are added to a 96 well pandex plate. The assay is run in 0.1 M sodium acetate buffer at pH 5.5 in the presence of 1.0 M sodium chloride and 0.05% NP-40 with incubated in the dark for one hour at room temperature. Strepavidin coated polystyrene beads {40 μl of 0.1% (w/v)} are added and the plate is incubated in the dark for an additional half hour. The labeled cleavage product is separated from the unreacted substrate via filtration and is read on the Idexx screen machine. The data are analyzed by appropriate computer algorithms to ascertain percent inhibition values.

[1] abbreviates: 10 μM (Table 1), read-out: % Protease Inhibition.
Where [2] appears, read: 10 μM (Table 3), read-out: % Protease Inhibition.
[3] abbreviates: 10 μM (Table 2), read-out: % Protease Inhibition.
Where [4] appears, read: 3.3 μM (Table 5), read-out: % HIV Protease Inhibition.
Where [5] appears, read: 10 μM (Table 5), read-out: % HIV Protease Inhibition.
Setting [6] is: 1.1 μM (Table 7), read-out: PROTEASE INHIBITION
[7] abbreviates: 3.3 μM (Table 7), read-out: PROTEASE INHIBITION
Where [8] appears, read: 10 μM (Table 7), read-out: PROTEASE INHIBITION
The mark [9] stands for this setting: 1.1 μM (Table 6), read-out: PROTEASE INHIBITION
Setting [10] is: 3.3 μM (Table 6), read-out: PROTEASE INHIBITION
Setting [11] is: 1.1 μM (Table 8), read-out: PROTEASE INHIBITION
Setting [12] is: 3.3 μM (Table 8), read-out: PROTEASE INHIBITION
[13] abbreviates: 10 μM (Table 8), read-out: PROTEASE INHIBITION

In the case of `Cc1sc2ncc(C(O)C#Cc3ccccc3)n2c1C` (stereo not drawn) [Example 1, 2,3-Dimethyl-α-(2-phenylethynyl)imidazo-[2,1-b]thiazole-5-methanol], the inhibition (in general, the percentage by which the read-out fell short of the control) at 10 µM under setting [1] was found to be 16%. Moreover, the “% Protease Inhibition” value (3.3-3.7 μM (Table 1)) is on record as < 10%.
As for `Cc1sc2ncc(C(O)Cc3ccccc3)n2c1C` (stereo not drawn) [Example 2, 2,3-Dimethyl-α-(2-phenylmethyl)imidazo-[2,1-b]thiazole-5-methanol], the inhibition at 10 µM under setting [1] was determined as 86%. The “% Protease Inhibition” value is on record as < 10% (1.1-1.3 μM (Table 1)) and 27% (3.3-3.7 μM (Table 1)).
As to `Cc1csc2ncc(C(C)(O)/C=C/c3ccccc3)n12` (stereo not drawn) [Example 5, α,3-Dimethyl-α-(E-2-phenyl-E-ethenyl)imidazo[2,1-b]thiazole-5-methanol], the inhibition at 10 µM under setting [2] was < 10%. This compound returned an inhibition at 30 µM (30 μM (Table 3 footnote)) of 48.9%. Besides, the “% Protease Inhibition” value runs as follows: (1-1.2 μM (Table 3)) < 10%; (3.3-3.7 μM (Table 3)) < 10%.
As for `Cc1csc2ncc(C(O)CC(C)c3ccccc3)n12` (stereo not drawn) [Example 6, 3-Methyl-α-(2-phenylpropyl)imidazo[2,1-b]thiazole-5-methanol], the inhibition at 10 µM under setting [3] worked out at 51%. The “% Protease Inhibition” value by setting is: (1.1-1.3 μM (Table 2)) < 10%; (3.3-3.7 μM (Table 2)) < 10%.
Regarding `Cc1csc2ncc(C(C)(O)CCc3ccccc3)n12` (stereo not drawn) [Example 7, α,3-Dimethyl-α-(2-phenylethyl)imidazo[2,1-b]thiazole-5-methanol], under setting [2], the inhibition at 10 µM worked out at 14.5%. Further, the “% Protease Inhibition” value (1-1.2 μM (Table 3)) is on record as < 10% and the “% Protease Inhibition” value (3.3-3.7 μM (Table 3)) is < 10%.
For `Cc1csc2ncc(C(O)CCc3ccccc3)n12` (stereo not drawn) [Example 8, 3-Methyl-α-(2-phenylethyl)imidazo[2,1-b]thiazole-5-methanol], the inhibition at 10 µM under setting [3] was 79%. Further, the “% Protease Inhibition” value (1.1-1.3 μM (Table 2)) is given as < 10% and the “% Protease Inhibition” value (3.3-3.7 μM (Table 2)) worked out at 32%.
The corresponding values for `Cc1csc2ncc(C(O)CCc3ccc(Br)cc3)n12` (stereo not drawn) [Example 9, 3-Methyl-α-(4-bromophenylethyl)imidazo[2,1-b]thiazole-5-methanol] are 83%, < 10% and 22%.
In the case of `Cc1csc2ncc(C(O)CCCCc3ccccc3)n12` (stereo not drawn) [Example 10, 3-Methyl-α-(4-phenylbutyl)imidazo-[2,1-b]thiazole-5-methanol], the inhibition at 10 µM under setting [3] came to 58%. The “% Protease Inhibition” value by setting is: (1.1-1.3 μM (Table 2)) < 10%; (3.3-3.7 μM (Table 2)) 12%.
Consider `OC(CCc1ccccc1)c1cnc2sc3c(n12)CCC3` (stereo not drawn) [Example 13, 6,7-Dihydro-α-(2-phenylethyl)-5H-cyclopent[d]imidazo[2,1-b]thiazole-3-methanol], for which the inhibition at 1.1 µM (1.1 μM (Table 4), read-out: Protease Inhibition, % Inhibition) came out at 39%.
Consider `OC(CCc1ccccc1)c1cnc2sc3ccccc3n12` (stereo not drawn) [Example 18, α-(2-phenylethyl)-imidazo[2,1-b]benzothiazole-3-methanol], for which the inhibition at 3.3 µM under setting [4] was found to be 28%. Also, the inhibition at 10 µM under setting [5] worked out at 94%.
`Cc1ccc2c(c1)sc1ncc(C(O)CCc3ccccc3)n12` (stereo not drawn) [Example 19, 7-Methyl-α-(2-phenylethyl)imidazo[2,1-b]benzothiazole-3-methanol]: the inhibition at 3.3 µM under setting [4] turned out to be 59%. The inhibition at 10 µM under setting [5] came to 92%.
Turning to `OC(CCc1ccccc1)c1cnc2sc3cc(F)ccc3n12` (stereo not drawn) [Example 20, 7-Fluoro-α-(2-phenylethyl)imidazo[2,1-b]benzothiazole-3-methanol], under setting [4], the inhibition at 3.3 µM amounted to 43%. Moreover, the inhibition at 10 µM under setting [5] was determined as 88%.
On to `COc1ccc2c(c1)sc1ncc(C(O)CCc3ccccc3)n12` (stereo not drawn) [Example 21, 7-Methoxy-α-(2-phenylethyl)imidazo[2,1-b]benzothiazole-3-methanol], for which the inhibition at 3.3 µM under setting [4] was found to be 80%. For the same compound, the inhibition at 10 µM under setting [5] came to 93%.
`OC(/C=C/c1cccc(F)c1)c1cnc2sc3c(n12)CCCCC3` (stereo not drawn) [Example 22, α-[2-(3-Fluorophenyl)ethenyl]-6,7,8,9-tetrahydro-5H-imidazo[2,1-b]thiazole-3-methanol]: the inhibition at 1.1 µM under setting [6] stood at 24%. In addition, under setting [7], the inhibition at 3.3 µM turned out to be 57%. Besides, the inhibition at 10 µM under setting [8] stood at 66%.
Take `OC(CCc1cccc(F)c1)c1cnc2sc3c(n12)CCCCC3` (stereo not drawn) [Example 23, α-[2-(3-Fluorophenyl)ethyl]-6,7,8,9-tetrahydro-5H-cyclohept[d]imidazo[2,1-b]thiazol-3-methanol]: under setting [9], the inhibition at 1.1 µM was found to be 35%. Under setting [10], the inhibition at 3.3 µM amounted to 64%.
Consider `OC(CCc1ccc(F)cc1)c1cnc2sc3c(n12)CCCCC3` (stereo not drawn) [Example 24, α-[2-(4-Fluorophenyl)ethyl]-6,7,8,9-tetrahydro-5H-cyclohept[d]imidazo[2,1-b]thiazol-3-methanol], for which, under setting [9], the inhibition at 1.1 µM was 53%. Moreover, the inhibition at 3.3 µM under setting [10] amounted to 77%.
For the compound `OC(/C=C/c1ccc(F)cc1)c1cnc2sc3c(n12)CCCCC3` (stereo not drawn) [Example 25, α-[2-(4-Fluorophenyl)ethenyl]-6,7,8,9-tetrahydro-5H-cyclohept[d]imidazo[2,1-b]thiazol-3-methanol], the inhibition at 1.1 µM under setting [6] stood at 23%. Also, under setting [7], the inhibition at 3.3 µM turned out to be 33%. Under setting [8], the inhibition at 10 µM came out at 21%.
In the case of `OC(CCc1cccc(Br)c1)c1cnc2sc3c(n12)CCCCC3` (stereo not drawn) [Example 26, α-[2-(3-Bromophenyl)ethyl]-6,7,8,9-tetrahydro-5H-cyclohept[d]imidazo-[2,1-b]thiazol-3-methanol], the inhibition at 1.1 µM under setting [9] turned out to be 4.8%. The inhibition at 3.3 µM under setting [10] worked out at 80%.
For `OC(CCc1cccc(Cl)c1)c1cnc2sc3c(n12)CCCCC3` (stereo not drawn) [Example 27, α-[2-(3-Chlorophenyl)ethyl]-6,7,8,9-tetrahydro-5H-cyclohept[d]imidazo[2,1-b]thiazol-3-methanol], the inhibition at 1.1 µM under setting [9] is 55%. The inhibition at 3.3 µM under setting [10] was found to be 98%.
With `OC(CCc1cc(F)cc(F)c1)c1cnc2sc3c(n12)CCCCC3` (stereo not drawn) [Example 28, α-[2-(3,5-Difluorophenyl)ethyl]-1-6,7,8,9-tetrahydro-5H-cyclohept[d]-imidazothiazol-3-methanol], under setting [9], the inhibition at 1.1 µM came out at 64%. Besides, the inhibition at 3.3 µM under setting [10] amounted to 88%.
Regarding `CN(C)c1ccc(CCC(O)c2cnc3sc4c(n23)CCCCC4)cc1` (stereo not shown) [Example 29], under setting [9], the inhibition at 1.1 µM was found to be 24%. Under setting [10], the inhibition at 3.3 µM amounted to 70%.
Take `CN(C)c1ccc(/C=C/C(O)c2cnc3sc4c(n23)CCCCC4)cc1` (stereo not drawn) [Example 30, α-[2-(4-Dimethylaminophenyl)ethenyl]-6,7,8,9-tetrahydro-5H-cyclohept[d]-imidazo[2,1-b]thiazol-3-methanol]: the inhibition at 3.3 µM under setting [7] is < 10%. Also, under setting [8], the inhibition at 10 µM stood at 24%.
On to `Cc1ccc(S(=O)(=O)Nc2cccc(CCC(O)c3cnc4sc(C)c(C)n34)c2)cc1` (stereo not shown) [Example 31], for which, under setting [11], the inhibition at 1.1 µM came out at 15%. Further, the inhibition at 3.3 µM under setting [12] amounted to 68%. The inhibition at 10 µM under setting [13] turned out to be 98%.
In the case of `Cc1ccc(S(=O)(=O)Nc2cccc(/C=C/C(O)c3cnc4sc(C)c(C)n34)c2)cc1` (stereo not shown) [Example 32], under “3.3 μM (Table 9), read-out: PROTEASE INHIBITION”, the inhibition at 3.3 µM is < 10%. Also, the inhibition at 10 µM (10 μM (Table 9), read-out: PROTEASE INHIBITION) worked out at 15%.
Take `Cc1ccc(S(=O)(=O)Nc2ccccc2CCC(O)c2cnc3sc(C)c(C)n23)cc1` (stereo not shown) [Example 33]: under setting [11], the inhibition at 1.1 µM was < 10%. In addition, the inhibition at 3.3 µM under setting [12] was determined as 52%. Besides, under setting [13], the inhibition at 10 µM is 97%.
For the compound `OC(CCc1cccc(F)c1F)c1cnc2sc3c(n12)CCCCC3` (stereo not drawn) [Example 34, α-[2-(2,3-Difluorophenyl)ethyl]-6,7,8,9-tetrahydro-5H-cyclohept[d]imidazothiazol-3-methanol], under setting [9], the inhibition at 1.1 µM stood at 58%. In addition, the inhibition at 3.3 µM under setting [10] came out at 99%.
In the case of `COc1ccc(CCC(O)c2cnc3sc4c(n23)CCCCC4)cc1` (stereo not drawn) [Example 35, α-[2-(4-methoxyphenyl)ethyl]-6,7,8,9-tetrahydro-5H-cyclohept-[d]imidazo[2,1-b]thiazol-3-methanol], the inhibition at 1.1 µM under setting [9] came out at 63%. Also, the inhibition at 3.3 µM under setting [10] was 81%.
On to `COc1ccc(/C=C/C(O)c2cnc3sc4c(n23)CCCCC4)cc1` (stereo not drawn) [Example 36, α-[2-(4-Methoxyphenyl)ethenyl]-6,7,8,9-tetrahydro-5H-cyclohept-[d]imidazo[2,1-b]thiazol-3-methanol], for which, under setting [6], the inhibition at 1.1 µM amounted to 15%. In addition, the inhibition at 3.3 µM under setting [7] is 52%. In addition, the inhibition at 10 µM under setting [8] was 42%.
With `OC(CCc1ccc2ccccc2c1)c1cnc2sc3c(n12)CCCCC3` (stereo not drawn) [Example 37, α-[2-(2-Naphthalenyl)ethyl]-6,7,8,9-tetrahydro-5H-cyclohept[d]imidazo[2,1-b]thiazol-3-methanol], under setting [9], the inhibition at 1.1 µM was 51%. Further, under setting [10], the inhibition at 3.3 µM was determined as 80%.
